Test system: 227483-062-R1-J1-PDC complex spheroids with HUVEC/MSC, viability
Assay: Anticancer human tumor 227483-062-R1-J1-PDC patient-derived pancreatic carcinoma cell line growth inhibition [CLK]
Conditions: for IC50: curve of first compound; for viability, T/C: stronger effect = lower value
Method in brief: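 Patient-derived tumor cells grown as complex spheroids with HUVEC endothelial cells and mesenchymal stem cells, treated with drug combinations. Concentrations descend in half-log steps from near clinical Cmax, or from 10 microM if Cmax unknown.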

[1] = second compound 0.0316 µM, first compound 0.0316 µM
[2] = second compound 0.0316 µM, first compound 0.1 µM
[3] = second compound 0.0316 µM, first compound 0.316 µM
[4] = second compound 0.0316 µM, first compound 1 µM
[5] = second compound 0.0316 µM, first compound 3.16 µM
[6] = second compound 0.0316 µM, first compound 10 µM
[7] = second compound 0.1 µM, first compound 0.0316 µM
[8] = second compound 0.1 µM, first compound 0.1 µM
[9] = second compound 0.1 µM, first compound 0.316 µM
[10] = second compound 0.1 µM, first compound 1 µM
[11] = second compound 0.1 µM, first compound 3.16 µM
[12] = second compound 0.1 µM, first compound 10 µM
[13] = second compound 0.316 µM, first compound 0.0316 µM
[14] = second compound 0.316 µM, first compound 0.1 µM
[15] = second compound 0.316 µM, first compound 0.316 µM
[16] = second compound 0.316 µM, first compound 1 µM
[17] = second compound 0.316 µM, first compound 3.16 µM
[18] = second compound 0.316 µM, first compound 10 µM
[19] = second compound 1 µM, first compound 0.0316 µM
[20] = second compound 1 µM, first compound 0.1 µM
[21] = second compound 1 µM, first compound 0.316 µM
[22] = second compound 1 µM, first compound 1 µM
[23] = second compound 1 µM, first compound 3.16 µM
[24] = second compound 1 µM, first compound 10 µM
[25] = second compound 3.16 µM, first compound 0.0316 µM
[26] = second compound 3.16 µM, first compound 0.1 µM
[27] = second compound 3.16 µM, first compound 0.316 µM
[28] = second compound 3.16 µM, first compound 1 µM
[29] = second compound 3.16 µM, first compound 3.16 µM
[30] = second compound 3.16 µM, first compound 10 µM
[31] = second compound 10 µM, first compound 0.0316 µM
[32] = second compound 10 µM, first compound 0.1 µM
[33] = second compound 10 µM, first compound 0.316 µM
[34] = second compound 10 µM, first compound 1 µM
[35] = second compound 10 µM, first compound 3.16 µM
[36] = second compound 10 µM, first compound 10 µM
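Note: spheroids exposed to compounds for seven days before readout.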
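Throughout, for viability, T/C: percent of DMSO vehicle control luminescence as 100% viability.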

Structure (SMILES): Nc1ccn(C2OC(CO)C(O)C2(F)F)c(=O)n1 (centres undefined) + CN1CCN(c2cc(C(=O)Nc3cc4cc(-c5cnn(C)c5)ccc4cn3)ccn2)CC1
- IC50 (second compound 0.0316 µM): 72.5 nM
- IC50 (second compound 0.1 µM): < 31.6 nM
- IC50 (second compound 0.316 µM): < 31.6 nM
- IC50 (second compound 1 µM): < 31.6 nM
- IC50 (second compound 3.16 µM): < 31.6 nM
- IC50 (second compound 10 µM): < 31.6 nM
- viability, T/C [1]: 76%
- viability, T/C [2]: 39%
- viability, T/C [3]: 32.1%
- viability, T/C [4]: 35.6%
- viability, T/C [5]: 27.6%
- viability, T/C [6]: 24.1%
- viability, T/C [7]: 36.7%
- viability, T/C [8]: 25.1%
- viability, T/C [9]: 24.1%
- viability, T/C [10]: 21%
- viability, T/C [11]: 22.5%
- viability, T/C [12]: 15%
- viability, T/C [13]: 4.9%
- viability, T/C [14]: 3.69%
- viability, T/C [15]: 3.08%
- viability, T/C [16]: 2.47%
- viability, T/C [17]: 2.75%
- viability, T/C [18]: 1.97%
- viability, T/C [19]: 1.05%
- viability, T/C [20]: 1.34%
- viability, T/C [21]: 2.72%
- viability, T/C [22]: 2.08%
- viability, T/C [23]: 1.09%
- viability, T/C [24]: 1.14%
- viability, T/C [25]: 2.12%
- viability, T/C [26]: 2.2%
- viability, T/C [27]: 3.37%
- viability, T/C [28]: 1.88%
- viability, T/C [29]: 1.71%
- viability, T/C [30]: 1.79%
- viability, T/C [31]: 0.96%
- viability, T/C [32]: 0.85%
- viability, T/C [33]: 1.06%
- viability, T/C [34]: 1.19%
- viability, T/C [35]: 0.9%
- viability, T/C [36]: 0.79%

Structure (SMILES): O=c1[nH]cc(F)c(=O)[nH]1 + CN1CCN(c2cc(C(=O)Nc3cc4cc(-c5cnn(C)c5)ccc4cn3)ccn2)CC1
- IC50 (second compound 0.0316 µM): 2920 nM
- IC50 (second compound 0.1 µM): 362 nM
- IC50 (second compound 0.316 µM): < 31.6 nM
- IC50 (second compound 1 µM): < 31.6 nM
- IC50 (second compound 3.16 µM): < 31.6 nM
- IC50 (second compound 10 µM): < 31.6 nM
- viability, T/C [1]: 113%
- viability, T/C [2]: 117%
- viability, T/C [3]: 109%
- viability, T/C [4]: 76.9%
- viability, T/C [5]: 50.8%
- viability, T/C [6]: 31.9%
- viability, T/C [7]: 69.3%
- viability, T/C [8]: 57.1%
- viability, T/C [9]: 58.1%
- viability, T/C [10]: 38.1%
- viability, T/C [11]: 27.5%
- viability, T/C [12]: 20.5%
- viability, T/C [13]: 6.26%
- viability, T/C [14]: 5.02%
- viability, T/C [15]: 5.2%
- viability, T/C [16]: 4.61%
- viability, T/C [17]: 4.43%
- viability, T/C [18]: 3.27%
- viability, T/C [19]: 1.65%
- viability, T/C [20]: 2.05%
- viability, T/C [21]: 5.56%
- viability, T/C [22]: 1.25%
- viability, T/C [23]: 1.55%
- viability, T/C [24]: 1.14%
- viability, T/C [25]: 4.69%
- viability, T/C [26]: 2.74%
- viability, T/C [27]: 3.16%
- viability, T/C [28]: 2.23%
- viability, T/C [29]: 2.22%
- viability, T/C [30]: 2.26%
- viability, T/C [31]: 1.91%
- viability, T/C [32]: 1.38%
- viability, T/C [33]: 1.3%
- viability, T/C [34]: 3.91%
- viability, T/C [35]: 1.9%
- viability, T/C [36]: 2.3%
